Read-outs that look alike come from different tables or passages of the source. Starred links: 1 amine or outer side, 2 acyl side, 3 side chain; linkers in the order of their positions; H or OH if unused. Positions of bridges follow the written chain, without caps; N, C: chain ends. Non-standard residues stand in square brackets, D forms with d. Residues, ends and D or L forms follow the SMILES beside them. *: point of attachment. Bip(4'-NHCO-C6H4-4-CH2COOH) = N[C@@H](Cc1ccc(-c2ccc(NC(=O)c3ccc(CC(=O)O)cc3)cc2)cc1)C(=O)O; X5 = Cn1nc(C(=O)Nc2ccc(-c3ccc(C[C@H](N[*:1])C(=O)[*:2])cc3)cc2)c2ccccc21; Bip(4'-NH) = O=C([C@H](Cc1ccc(-c2ccc(N[*:3])cc2)cc1)N[*:1])[*:2]; Indazole3carbonyl(1-CH2COOH) = O=C(O)Cn1nc(C(=O)*)c2ccccc21; X72 = N=C(N)Nc1ccc(CCNC(=N)NCCC[C@@H](N[*:1])C(=O)[*:2])cc1; Bip(4'-COOH) = N[C@@H](Cc1ccc(-c2ccc(C(=O)O)cc2)cc1)C(=O)O; Bip(4'-NHAc) = CC(=O)Nc1ccc(-c2ccc(C[C@H](N)C(=O)O)cc2)cc1; dArg(ω-Bn) = N=C(NCCC[C@@H](N)C(=O)O)NCc1ccccc1; Ala(morpholin-4-yl) = N[C@@H](CN1CCOCC1)C(=O)O; Phe(3-CONH2) = NC(=O)c1cccc(C[C@H](N)C(=O)O)c1; Bip = N[C@@H](Cc1ccc(-c2ccccc2)cc1)C(=O)O; Phe(4-NH2) = Nc1ccc(C[C@H](N)C(=O)O)cc1; h4Pal = N[C@@H](CCc1ccncc1)C(=O)O; 2Pal = N[C@@H](Cc1ccccn1)C(=O)O; Tle = CC(C)(C)[C@H](N)C(=O)O; Sar = CNCC(=O)O
Target: TNFα (Homo sapiens, UniProt P01375)
Experiment: TNF-Induced HEK-Blue Assay
Type: cell-based
[1] = HEK-Blue-CD40L cells, NF-kB-driven secreted alkaline phosphatase reporter, TNFα 0.5 ng/ml, 18 h, read-out: TNF induced HEK-Blue assay IC50 value

Chain of TNFα (P01375 77-233 limits assumed): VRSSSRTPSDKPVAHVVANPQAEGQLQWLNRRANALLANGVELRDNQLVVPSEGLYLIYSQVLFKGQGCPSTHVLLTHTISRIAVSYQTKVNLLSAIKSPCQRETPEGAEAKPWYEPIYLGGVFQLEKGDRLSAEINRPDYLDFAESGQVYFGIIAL

Row | IC50 [1] [nM] | Structure (SMILES) | IC50 [nM]
1 | 200 to 2000 | CC(C)C[C@@H]1NC(=O)[C@H](CCCNC(=N)N)NC(=O)[C@H](C(C)C)NC(=O)[C@@H]2CCCN2C(=O)[C@H](C(C)C)NC(=O)[C@H](CCCNC(=N)N)NC(=O)[C@H](CC(=O)O)NC(=O)[C@@H]2CCCN2C(=O)CN(C)C(=O)[C@H](Cc2ccc(-c3ccccc3)cc2)NC(=O)[C@H](Cc2ccc(-c3ccccc3)cc2)NC(=O)[C@H](Cc2ccccn2)NC(=O)CSC[C@@H](C(=O)NCC(N)=O)NC1=O [Example 30] ({CH2CO}-[2Pal][Bip][Bip][Sar]PDRVPVRLCG-NH2; thioether N-13) | 
2 | 200 to 2000 | CC(C)C[C@@H]1NC(=O)[C@H](Cc2ccc(O)cc2)NC(=O)[C@H](C(C)C)NC(=O)[C@@H]2CCCN2C(=O)[C@H](Cc2ccc(N)cc2)NC(=O)[C@H](CCCNC(=N)N)NC(=O)[C@H](CC(=O)O)NC(=O)[C@H](Cc2ccc(O)cc2)NC(=O)CN(C)C(=O)[C@H](Cc2ccc(-c3ccccc3)cc2)NC(=O)[C@H](Cc2ccc(-c3ccccc3)cc2)NC(=O)[C@H](CN2CCOCC2)NC(=O)CSC[C@@H](C(=O)NCC(N)=O)NC1=O [Example 112] ({CH2CO}-[Ala(morpholin-4-yl)][Bip][Bip][Sar]YDR[Phe(4-NH2)]PVYLCG-NH2; thioether N-13) | 
3 | 50 to 200 | CC(=O)Nc1ccc(-c2ccc(C[C@@H]3NC(=O)[C@H](Cc4ccc(-c5ccccc5)cc4)NC(=O)[C@H](CN4CCOCC4)NC(=O)CSC[C@@H](C(=O)NCC(N)=O)NC(=O)[C@H](CC(C)C)NC(=O)[C@H](CCCNC(=N)N)NC(=O)[C@H](C(C)C)NC(=O)[C@@H]4CCCN4C(=O)[C@H](C(C)C)NC(=O)[C@H](CCCNC(=N)N)NC(=O)[C@H](CC(=O)O)NC(=O)[C@H](Cc4ccc(O)cc4)NC(=O)CNC3=O)cc2)cc1 [Example 192] ({CH2CO}-[Ala(morpholin-4-yl)][Bip][Bip(4'-NHAc)]GYDRVPVRLCG-NH2; thioether N-13) | 
4 | 50 to 200 | CC(C)C[C@@H]1NC(=O)[C@H](Cc2ccc(O)cc2)NC(=O)[C@H](C(C)C)NC(=O)[C@@H]2CCCN2C(=O)[C@H](C(C)C)NC(=O)[C@@H](CCCNC(=N)N)NC(=O)[C@H](CC(=O)O)NC(=O)[C@H](Cc2ccc(O)cc2)NC(=O)CN(C)C(=O)[C@H](Cc2ccc(-c3ccccc3)cc2)NC(=O)[C@H](Cc2ccc(-c3ccc(C(=O)O)cc3)cc2)NC(=O)[C@H](CCc2ccncc2)NC(=O)CSC[C@@H](C(=O)NCC(N)=O)NC1=O [Example 186] ({CH2CO}-[h4Pal][Bip(4'-COOH)][Bip][Sar]YD[dR]VPVYLCG-NH2; thioether N-13) | 
5 |  | CC(C)C[C@@H]1NC(=O)[C@H](CCCNC(=N)N)NC(=O)[C@H](C(C)C)NC(=O)[C@@H]2CCCN2C(=O)[C@H](C(C)C)NC(=O)[C@@H](CCCNC(=N)NCCc2ccc(NC(=N)N)cc2)NC(=O)[C@H](CC(=O)O)NC(=O)[C@@H]2CCCN2C(=O)CN(C)C(=O)[C@H](Cc2ccc(-c3ccc(NC(=O)c4nn(CC(=O)O)c5ccccc45)cc3)cc2)NC(=O)[C@H](Cc2ccc(-c3ccccc3)cc2)NC(=O)[C@H](CN2CCOCC2)NC(=O)CSC[C@@H](C(=O)NCC(N)=O)NC1=O [Example 436] ({CH2CO}-[Ala(morpholin-4-yl)][Bip][Bip(4'-NH)](Indazole3carbonyl(1-CH2COOH))[Sar]PD[X72]VPVRLCG-NH2; thioether N-13) | < 50
6 | < 50 | CC(C)C[C@@H]1NC(=O)[C@H](Cc2cccc(C(N)=O)c2)NC(=O)[C@H](C(C)C)NC(=O)[C@@H]2CCCN2C(=O)[C@H](C(C)C)NC(=O)[C@@H](CCCNC(=N)NCc2ccccc2)NC(=O)[C@H](CC(=O)O)NC(=O)[C@H](Cc2ccc(O)cc2)NC(=O)CN(C)C(=O)[C@H](Cc2ccc(-c3ccc(NC(=O)c4ccc(CC(=O)O)cc4)cc3)cc2)NC(=O)[C@H](Cc2ccc(-c3ccccc3)cc2)NC(=O)[C@H](CN2CCOCC2)NC(=O)CSC[C@@H](C(=O)NCC(N)=O)NC1=O [Example 602] ({CH2CO}-[Ala(morpholin-4-yl)][Bip][Bip(4'-NHCO-C6H4-4-CH2COOH)][Sar]YD[dArg(ω-Bn)]VPV[Phe(3-CONH2)]LCG-NH2; thioether N-13) | 

Row | Structure (SMILES) | IC50 [1] [nM] | IC50 [nM]
7 | CC[C@H](C)[C@@H]1NC(=O)[C@@H]2CCCN2C(=O)[C@H]([C@@H](C)CC)NC(=O)[C@@H](CCCNC(=N)N)NC(=O)[C@H](CC(=O)O)NC(=O)[C@H](Cc2ccccc2)NC(=O)CN(C)C(=O)[C@H](Cc2ccc(-c3ccc(NC(=O)c4nn(C)c5ccccc45)cc3)cc2)NC(=O)[C@H](Cc2ccc(-c3ccc(C(=O)O)cc3)cc2)NC(=O)[C@H](C(C)(C)C)NC(=O)CSC[C@@H](C(=O)NCC(N)=O)NC(=O)[C@H](CC(C)C)NC(=O)[C@H](Cc2cnc[nH]2)NC1=O [Example 334] ({CH2CO}-[Tle][Bip(4'-COOH)][X5][Sar]FD[dR]IPIHLCG-NH2; thioether N-13) | < 50 | 
